Where a name gives a salt, the structure may show the parent alone.
What was measured:
[1] = target: T1, Recombinant N-terminal GST tag full-length human HDAC8 (Homo sapiens, UniProt Q9BY41); experiment: HDAC8 probe binding assay, time resolved fluorescence (TRF); conditions: fluorescein labeled pan-HDAC inhibitor probe, 16 hours incubation, compounds listed under IC50 range headings
T1 construct: Recombinant N-terminal GST tag full-length human HDAC8; purchased SignalChem H90-30G-1000; host or cells: Sf9 insect cells (baculovirus)
T1 sequence (Q9BY41 1-377): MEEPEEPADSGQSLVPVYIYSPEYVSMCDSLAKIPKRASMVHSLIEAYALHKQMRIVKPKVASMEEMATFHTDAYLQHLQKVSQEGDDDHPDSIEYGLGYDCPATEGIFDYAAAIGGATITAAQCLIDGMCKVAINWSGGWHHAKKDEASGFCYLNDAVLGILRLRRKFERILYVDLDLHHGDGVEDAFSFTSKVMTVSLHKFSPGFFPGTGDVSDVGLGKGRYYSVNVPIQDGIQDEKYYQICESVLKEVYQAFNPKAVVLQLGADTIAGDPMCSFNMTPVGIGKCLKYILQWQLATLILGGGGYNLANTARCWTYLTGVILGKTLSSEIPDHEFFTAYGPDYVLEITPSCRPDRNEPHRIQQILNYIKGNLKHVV
Summary of the method: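 TR-FRET probe displacement using GST-tagged full-length human HDAC8 (Sf9-expressed, 2.5 nM) with 1.5 nM fluorescein-labelled pan-HDAC inhibitor probe and anti-GST terbium, in HEPES pH 7.5 buffer with GSH, BGG, Triton X-100. Compounds 25 μM–1.3 nM, 10-point; 16 h at room temperature. IC50 from 4-parameter fit of % inhibition versus no-enzyme and DMSO controls.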

[2] = target: T2, Full length human recombinant HDAC8 protein (Homo sapiens, UniProt Q9BY41); experiment: In vitro histone deacetylase assay: enzymatic HDAC8 assay, electrophoretic mobility shift; assay type: biochemical; conditions: substrate RHKK(Ac)-NH2, 1 nM enzyme, compounds listed under IC50 range headings
T2 construct: Full length human recombinant HDAC8 protein was expressed in baculoviral system; made in house
T2 sequence (Q9BY41 1-377): T1 sequence (Q9BY41 1-377)
Summary of the method: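 Baculovirus-expressed full-length human HDAC8 (1 nM) deacetylated 2 µM fluorescent RHKK(Ac)-NH2 peptide in pH 7.5 HEPES, 1% DMSO, at 25 °C, with 12 compound concentrations at 3× spacing. SDS-quenched; product and substrate resolved by microfluidic electrophoresis, P/(S+P) converted to percent inhibition, and IC50 obtained by 4-parameter fit.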

Structure (SMILES) | IC50 [1] | IC50 [2]
CCCn1c(C(=O)Nc2ccccc2/C=C/C(=O)NO)cc2ccccc21 [Example I-270, (E)-N-(2-(3-(hydroxyamino)-3-oxoprop-1-en-1-yl)phenyl)-1-propyl-1H-indole-2-carboxamide] | ≤ 1000 nM | < 1000 nM
CCn1nc(C)cc1C(=O)Nc1ccccc1/C=C/C(=O)NO [Example I-274, (E)-1-ethyl-N-(2-(3-(hydroxyamino)-3-oxoprop-1-en-1-yl)phenyl)-3-methyl-1H-pyrazole-5-carboxamide] | ≤ 1000 nM | < 1000 nM
Cc1onc(-c2c(Cl)cccc2Cl)c1C(=O)Nc1ccccc1/C=C/C(=O)NO [Example I-275, (E)-3-(2,6-dichlorophenyl)-N-(2-(3-(hydroxyamino)-3-oxoprop-1-en-1-yl)phenyl)-5-methylisoxazole-4-carboxamide] | ≤ 1000 nM | < 1000 nM
CCC(Oc1ccccc1)C(=O)Nc1ccccc1/C=C/C(=O)NO (centres unmarked) [Example I-281, (E)-N-(2-(3-(hydroxyamino)-3-oxoprop-1-en-1-yl)phenyl)-2-phenoxybutanamide] | ≤ 1000 nM | < 1000 nM
O=C(/C=C/c1ccccc1NC(=O)[C@@H]1C[C@H]2CC[C@@H]1O2)NO [Example I-282, (1S,2R,4R)-N-(2-((E)-3-(hydroxyamino)-3-oxoprop-1-en-1-yl)phenyl)-7-oxabicyclo[2.2.1]heptane-2-carboxamide] | ≤ 1000 nM | < 1000 nM
Cc1cc(C)n(Cc2ccc(C(=O)Nc3ccccc3/C=C/C(=O)NO)cc2)n1 [Example I-288, (E)-4-((3,5-dimethyl-1H-pyrazol-1-yl)methyl)-N-(2-(3-(hydroxyamino)-3-oxoprop-1-en-1-yl)phenyl)benzamide] | ≤ 1000 nM | < 1000 nM
COc1ccc(CN2CCN(c3ccccc3/C=C/C(=O)NO)C(=O)C2)cc1 [Example I-293, (E)-N-hydroxy-3-(2-(4-(4-methoxybenzyl)-2-oxopiperazin-1-yl)phenyl)acrylamide] | ≤ 1000 nM | < 1000 nM
Cc1cc(C(=O)N2CCN(c3ccccc3/C=C/C(=O)NO)CC2)n(C)n1 [Example I-298, (E)-3-(2-(4-(1,3-dimethyl-1H-pyrazole-5-carbonyl)piperazin-1-yl)phenyl)-N-hydroxyacrylamide] | ≤ 1000 nM | < 1000 nM
O=C(/C=C/c1ccccc1NC(=O)c1ccccc1Oc1ccc(C(F)(F)F)cc1)NO [Example I-303, (E)-N-(2-(3-(hydroxyamino)-3-oxoprop-1-en-1-yl)phenyl)-2-(4-(trifluoromethyl)phenoxy)benzamide] | ≤ 1000 nM | < 1000 nM
COc1ccccc1Oc1ccccc1C(=O)Nc1ccccc1/C=C/C(=O)NO [Example I-304, (E)-N-(2-(3-(hydroxyamino)-3-oxoprop-1-en-1-yl)phenyl)-2-(2-methoxyphenoxy)benzamide] | ≤ 1000 nM | < 1000 nM
O=C(/C=C/c1ccccc1NC(=O)c1ccccc1Oc1ccc(F)cc1)NO [Example I-306, (E)-2-(4-fluorophenoxy)-N-(2-(3-(hydroxyamino)-3-oxoprop-1-en-1-yl)phenyl)benzamide] | ≤ 1000 nM | < 1000 nM
CC(=O)NC1CCN(c2ccccc2/C=C/C(=O)NO)C1 (centres unmarked) [Example I-307, (E)-3-(2-(3-acetamidopyrrolidin-1-yl)phenyl)-N-hydroxyacrylamide] | ≤ 1000 nM | < 1000 nM
O=C(/C=C/c1ccccc1N1CC(c2ccccc2)CC1=O)NO (centres unmarked) [Example I-309, (E)-N-hydroxy-3-(2-(2-oxo-4-phenylpyrrolidin-1-yl)phenyl)acrylamide] | ≤ 1000 nM | < 1000 nM
CC(C)(C)OC(=O)N1CCC2(CC1)CCN(c1ccccc1/C=C/C(=O)NO)C2=O [Example I-310, tert-butyl (E)-2-(2-(3-(hydroxyamino)-3-oxoprop-1-en-1-yl)phenyl)-1-oxo-2,8-diazaspiro[4.5]decane-8-carboxylate] | ≤ 1000 nM | < 1000 nM
O=C(/C=C/c1ccccc1NC(=O)c1cnc(-c2ccccc2F)s1)NO [Example I-311, (E)-2-(2-fluorophenyl)-N-(2-(3-(hydroxyamino)-3-oxoprop-1-en-1-yl)phenyl)thiazole-5-carboxamide] | ≤ 1000 nM | < 1000 nM
O=C(/C=C/c1ccccc1NC(=O)c1cnc(-c2ccccn2)s1)NO [Example I-312, (E)-N-(2-(3-(hydroxyamino)-3-oxoprop-1-en-1-yl)phenyl)-2-(pyridin-2-yl)thiazole-5-carboxamide] | ≤ 1000 nM | < 1000 nM

Structure (SMILES) | IC50 [1] | IC50 [2]
O=C(/C=C/c1ccccc1NC(=O)c1ccncc1N1CCOCC1)NO [Example I-313, (E)-N-(2-(3-(hydroxyamino)-3-oxoprop-1-en-1-yl)phenyl)-3-morpholinoisonicotinamide] | ≤ 1000 nM | < 1000 nM
O=C(/C=C/c1ccccc1NC(=O)c1ccccc1Oc1cccnc1)NO [Example I-314, (E)-N-(2-(3-(hydroxyamino)-3-oxoprop-1-en-1-yl)phenyl)-2-(pyridin-3-yloxy)benzamide] | ≤ 1000 nM | < 1000 nM
Cc1nc(C)c(CN2CCN(c3ccccc3/C=C/C(=O)NO)CC2)s1 [Example I-315, (E)-3-(2-(4-((2,4-dimethylthiazol-5-yl)methyl)piperazin-1-yl)phenyl)-N-hydroxyacrylamide] | ≤ 1000 nM | < 1000 nM
Cc1cc(CN2C[C@@H]3C[C@H]2CN3c2ccccc2/C=C/C(=O)NO)n(C)n1 [Example I-317, (E)-3-(2-((1S,4S)-5-((1,3-dimethyl-1H-pyrazol-5-yl)methyl)-2,5-diazabicyclo[2.2.1]heptan-2-yl)phenyl)-N-hydroxyacrylamide] | ≤ 1000 nM | < 1000 nM
O=C(/C=C/c1ccccc1NC(=O)c1cnc(N2CCOCC2)s1)NO [Example I-319, (E)-N-(2-(3-(hydroxyamino)-3-oxoprop-1-en-1-yl)phenyl)-2-morpholinothiazole-5-carboxamide] | ≤ 1000 nM | < 1000 nM
Cc1onc(-c2ccccc2Cl)c1C(=O)Nc1ccccc1/C=C/C(=O)NO [Example I-320, (E)-3-(2-chlorophenyl)-N-(2-(3-(hydroxyamino)-3-oxoprop-1-en-1-yl)phenyl)-5-methylisoxazole-4-carboxamide] | ≤ 1000 nM | < 1000 nM
O=C(/C=C/c1ccccc1N1CCN(C(=O)C2(c3cccnc3)CC2)CC1)NO [Example I-321, (E)-N-hydroxy-3-(2-(4-(1-(pyridin-3-yl)cyclopropane-1-carbonyl)piperazin-1-yl)phenyl)acrylamide] | ≤ 1000 nM | < 1000 nM
Cc1onc(-c2ccc(F)cc2)c1C(=O)Nc1ccccc1/C=C/C(=O)NO [Example I-323, (E)-3-(4-fluorophenyl)-N-(2-(3-(hydroxyamino)-3-oxoprop-1-en-1-yl)phenyl)-5-methylisoxazole-4-carboxamide] | ≤ 1000 nM | < 1000 nM
O=C(NO)/C(F)=C/c1ccccc1NC(=O)c1cccc(C(F)(F)F)c1 [Example I-324, (Z)—N-(2-(2-fluoro-3-(hydroxyamino)-3-oxoprop-1-en-1-yl)phenyl)-3-(trifluoromethyl)benzamide] | ≤ 1000 nM | < 1000 nM
O=C(NO)/C(F)=C/c1ccccc1NC(=O)c1ccccc1Oc1ccccc1 [Example I-325, (Z)—N-(2-(2-fluoro-3-(hydroxyamino)-3-oxoprop-1-enyl)phenyl)-2-phenoxybenzamide hydrochloride] | ≤ 1000 nM | < 1000 nM
CN1CCN(c2ccccc2/C=C/C(=O)NO)CC1 [Example I-326, (E)-N-hydroxy-3-(2-(4-methylpiperazin-1-yl)phenyl)acrylamide] | ≤ 1000 nM | < 1000 nM
O=C(/C=C/c1ccccc1N1CCN(S(=O)(=O)c2ccccc2)CC1=O)NO [Example I-526, (E)-N-hydroxy-3-(2-(2-oxo-4-(phenylsulfonyl)piperazin-1-yl)phenyl)acrylamide] | ≤ 1000 nM | < 1000 nM
O=C(/C=C/c1ccccc1N1CCN(S(=O)(=O)c2ccc(OC(F)(F)F)cc2)CC1=O)NO [Example I-527, (E)-N-hydroxy-3-(2-(2-oxo-4-((4-(trifluoromethoxy)phenyl)sulfonyl)piperazin-1-yl)phenyl)acrylamide] | ≤ 1000 nM | < 1000 nM
COc1ccc(NC(=O)N2CCN(c3ccccc3/C=C/C(=O)NO)C(=O)C2)cc1 [Example I-529, (E)-4-(2-(3-(hydroxyamino)-3-oxoprop-1-en-1-yl)phenyl)-N-(4-methoxyphenyl)-3-oxopiperazine-1-carboxamide] | ≤ 1000 nM | < 1000 nM
O=C(/C=C/c1ccccc1N1CCN(Cc2ccc(F)cc2)CC1=O)NO [Example I-530, (E)-3-(2-(4-(4-fluorobenzyl)-2-oxopiperazin-1-yl)phenyl)-N-hydroxyacrylamide] | ≤ 1000 nM | < 1000 nM

From patent US10508077B2 (FORMA Therapeutics, Inc., priority 2015, dated 2019)
